The target in the test is T1, human CXCR2 receptor (Homo sapiens, UniProt P25025).
T1 construct: expressed in transfected cells; host or cells: HEK293, stably transfected geneticin-resistant clones, vector RcCMV; membranes purified by sucrose gradient
T1 sequence (P25025 1-360): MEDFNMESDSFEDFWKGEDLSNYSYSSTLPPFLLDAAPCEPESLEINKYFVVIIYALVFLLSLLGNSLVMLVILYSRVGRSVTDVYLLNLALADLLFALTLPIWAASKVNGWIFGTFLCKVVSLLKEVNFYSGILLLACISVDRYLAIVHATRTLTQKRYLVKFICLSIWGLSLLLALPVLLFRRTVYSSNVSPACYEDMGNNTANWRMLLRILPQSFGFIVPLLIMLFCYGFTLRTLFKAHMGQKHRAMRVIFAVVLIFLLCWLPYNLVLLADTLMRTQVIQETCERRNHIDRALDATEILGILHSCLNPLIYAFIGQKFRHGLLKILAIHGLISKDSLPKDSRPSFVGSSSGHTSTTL
In words: Potency (pIC50) ligand binding assay, inhibition of [125I]IL-8 binding. The settings on record: for pIC50: inhibition of specific [125I]IL-8 (0.06 nM) binding, membranes of HEK293 cells transfected with human recombinant CXCR2. The method, then:
Potency (pIC50)—Ligand Binding Assay
The potency of antagonists at the human CXCR2 receptor was determined in vitro by quantifying their ability to inhibit specific binding of the CXCR2 radioligand, [^125I]interleukin-8 (IL-8), from membranes of HEK293 cells transfected with the human recombinant CXCR2 receptor.
Commercially sourced materials were obtained as follows: U-bottomed 96-well plates (3799) and 225 cm^2 vented cap culture flasks (3001) from Costar, Corning, Kent, UK. Multiscreen filter plates (0.45 μm; MAHV N45 50), vacuum manifold and pump (XF54 230 50) from Millipore, Watford, UK. N-[2-hydroxyethyl]piperazine-N′-[2ethanesulphonic acid] (HEPES; H-3375), ethylene diamine-tetraacetic acid (EDTA; E1644), magnesium chloride (M-9272), gelatin (G9382), dithiothreitol (DTT; D06052), sodium chloride (S3160/63), sodium hydroxide (B6506), bacitracin (B0125), inactivated foetal calf serum (FCS; CR0848) and DMSO Fluka Chemika (41648) from Sigma, Poole, UK. MicroScint-O (6013611) Packard BioScience, Pangboume, UK. Complete protease inhibitor cocktail tablets (1836145) from Boehringer s Mannheim, GmbH, Germany. Human recombinant [^125I]IL-8 74 TBq/mmol, 0.712 MBq/ml (IM249) from Amersham, Horsham UK. All other tissue culture reagents were purchased from Invitrogen, Paisley, Scotland, UK. All other chemical reagents were analytical grade from Fisher Scientific, Loughborough, UK
HEPES-buffered salt solution pH 7.4 containing HEPES (10 mM), potassium chloride (2.7 mM), sodium chloride (137 mM), potassium hydrogen phosphate (0.4 mM), calcium chloride (1.8 mM), magnesium chloride (1 mM), gelatin (0.1% (w/v)) and bacitracin (100 μg/ml).
HEPES-buffered Tyrode's solution pH 7.4 containing HEPES (10 mM), potassium chloride (2.7 mM), sodium chloride (137 mM), potassium hydrogen phosphate (0.4 mM), glucose (11 mM).
Hypotonic buffer: 3:1 mix of water: HEPES-buffered Tyrode's solution.
HEK293 cells were transfected with human CXCR2 (EMBL L19593) cDNA, previously cloned into the eukaryotic expression vector RcCMV. Cloned cell-lines were generated from stably-transfected geneticin-resistant populations. Cells were routinely grown to approximately 80% confluence in DMEM medium containing 10% (v/v) foetal calf serum and glutamine (2 mM) in a humidified incubator at 37° C., 5% CO2. Cells were harvested from flasks using Accutase™ at 37° C. for 3 to 5 minutes and resuspended on ice in hypotonic buffer at a density of 2×10^7 cells/mL. Membranes were prepared on ice by homogenisaton using a polytron tissue homogenizer set at 22000 rpm. The membrane fraction was purified by sucrose gradient centrifugation where homogenised cells were layered onto 41% (w/v) sucrose solution then centrifuged at 140000 g for 1 hour at 4° C. The membrane fraction was harvested at the interface, diluted 4-fold with HEPES-buffered Tyrode's solution and centrifuged at 100000 g for 20 minutes at 4° C. The membrane pellet was re-suspended at 1×10^8 cell equivalents/mL in HEPES-buffered Tyrode's solution and subsequently stored in aliquots at −80° C. All buffers used for membrane preparation and storage were made in the presence of 1 mM DTT and Complete Protease Inhibitor™ cocktail tablets, made up to manufacturers instructions.
Assays were performed in HEPES-buffered salt solution in 96-well plates. [^125I]IL-8 was used at a final concentration of 0.06 nM, pre-diluted from a 9.6 nM stock. The final DMSO concentration in the assay was 1% (v/v). Test compounds were prepared by serial dilution in DMSO followed by a ten-fold dilution into HEPES-buffered salt solution to give a working solution containing compound and 10% DMSO. The control for total binding (B0) of [^125I]IL-8 was determined in the absence of compound. The control for non-specific binding (NSB) was determined by measuring [^125I]IL-8 binding in the presence of (1R)-5-[[(3 -chloro-2-fluorophenyl)methyl]thio]-7-[[2-hydroxy-1-methylethyl]amino]thiazolo[4,5-d]pyrimidin-2(3H)-one dihydrate, sodium salt at 1 μM final concentration. […]

What is called pIC50 is −log10 of the IC50, conventionally taken in molar units.

Structures are written as SMILES. pIC50: −log10 of the molar value. Where “and” joins values, the source holds several entries; their conditions need not be identical. Equal entries are not always repeated.

Take `CS(=O)(=O)Nc1cc(NC(CO)CO)nc(SCc2ccccc2)n1` [Example 21]: the negative-log IC50 (pIC50) was 5.60. For the same compound, under “potency ratio from pIC50”, the “fold less potent than the compound of Formula (1)” value came out at 398 fold and the “fold less potent than the compounds of Examples 39-42” value was 316-1000 fold.

Turning to `Cc1ccc(CSc2nc(N[C@H](C)CO)cc(NS(=O)(=O)N3CCC3)n2)c(F)c1C` [Example 41], the pIC50 is 8.50.

On to `Cc1ccc(CSc2nc(N[C@H](C)CO)cc(NS(=O)(=O)N3CCC3)n2)c(F)c1C` [Example 42], for which the negative-log IC50 (pIC50) is 8.10.

Consider `Cc1cccc(CSc2nc(N[C@H](C)CO)cc(NS(C)(=O)=O)n2)c1F` [Example 39], for which the negative-log IC50 (pIC50) is 8.40.

`Cc1cccc(CSc2nc(N[C@H](C)CO)cc(NS(=O)(=O)N3CCC3)n2)c1F` [Example 40]: the negative-log IC50 (pIC50) is 8.60.

On to `C[C@@H](Nc1cc(NS(=O)(=O)N2CCC2)nc(SCc2cccc(F)c2F)n1)[C@@H](O)CO` [Example 1, N-(2-[(2,3-difluorobenzyl)thio]-6-{[(1R,2R)-2,3-dihydroxy-1-methylpropyl]amino}pyrimidin-4-yl)azetidine-1-sulfonamide], for which the negative logarithm of the IC50 (pIC50) is 8.20 and > 8.00.

(Values after US20100016275A1, “NOVEL COMPOUND 395” (priority 2008, published 2010).)
